Source: paper PMC4685012 (Bioorganic & medicinal chemistry, 2015)

How the values were obtained:
[1] = system: TNF-α, IL-1α, IL-1β mRNA expression; assay: Quantitative RT-PCR of NTHi-induced cytokine mRNA in BEAS-2B cells; format: cell-based, human; conditions: 1 µM, 2 h pretreatment, 1.5 h NTHi, relative to SAHA
MCF-7 cells = assay: Cell viability; format: cell-based; conditions: for IC50: Homo sapiens, MCF7, 72 h, read-out: Anti-proliferative activity IC50, MCF-7; for Antiproliferative activity against MCF-7, in words: MCF-7 cells
A549 cells = assay: Cell viability; format: cell-based; conditions: for Antiproliferative activity against A549, in words: A549 cells; for IC50: Homo sapiens, A549, 72 h, read-out: Anti-proliferative activity IC50, A549
NF-κB = NF-κB luciferase assay in NTHi-stimulated BEAS-2B cells; format: cell-based, human
HDAC1/2 = conditions: read-out: HDAC1/2 IC50; cited from earlier work
HDAC8 = target: T1, HDAC8 (Homo sapiens, UniProt Q9BY41); assay: HDAC8 inhibition, label-free mass spectrometry-based SAMDI assay; format: biochemical; conditions: vs 26e as printed
T1 sequence (Q9BY41 1-377): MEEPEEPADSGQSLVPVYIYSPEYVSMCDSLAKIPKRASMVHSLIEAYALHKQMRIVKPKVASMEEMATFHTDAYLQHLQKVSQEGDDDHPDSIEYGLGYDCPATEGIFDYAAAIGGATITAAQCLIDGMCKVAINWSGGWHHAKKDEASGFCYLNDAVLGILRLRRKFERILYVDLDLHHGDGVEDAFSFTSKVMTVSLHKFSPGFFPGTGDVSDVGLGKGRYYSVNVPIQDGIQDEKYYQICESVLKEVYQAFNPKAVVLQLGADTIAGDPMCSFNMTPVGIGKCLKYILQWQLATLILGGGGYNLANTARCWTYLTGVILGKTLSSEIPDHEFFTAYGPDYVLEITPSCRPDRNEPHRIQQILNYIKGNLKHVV

HDAC6 = target: T2, HDAC6 (Homo sapiens, UniProt Q9UBN7); assay: HDAC6 inhibition, label-free mass spectrometry-based SAMDI assay; format: biochemical; conditions: vs 26e as printed
T2 sequence (Q9UBN7 1-1215): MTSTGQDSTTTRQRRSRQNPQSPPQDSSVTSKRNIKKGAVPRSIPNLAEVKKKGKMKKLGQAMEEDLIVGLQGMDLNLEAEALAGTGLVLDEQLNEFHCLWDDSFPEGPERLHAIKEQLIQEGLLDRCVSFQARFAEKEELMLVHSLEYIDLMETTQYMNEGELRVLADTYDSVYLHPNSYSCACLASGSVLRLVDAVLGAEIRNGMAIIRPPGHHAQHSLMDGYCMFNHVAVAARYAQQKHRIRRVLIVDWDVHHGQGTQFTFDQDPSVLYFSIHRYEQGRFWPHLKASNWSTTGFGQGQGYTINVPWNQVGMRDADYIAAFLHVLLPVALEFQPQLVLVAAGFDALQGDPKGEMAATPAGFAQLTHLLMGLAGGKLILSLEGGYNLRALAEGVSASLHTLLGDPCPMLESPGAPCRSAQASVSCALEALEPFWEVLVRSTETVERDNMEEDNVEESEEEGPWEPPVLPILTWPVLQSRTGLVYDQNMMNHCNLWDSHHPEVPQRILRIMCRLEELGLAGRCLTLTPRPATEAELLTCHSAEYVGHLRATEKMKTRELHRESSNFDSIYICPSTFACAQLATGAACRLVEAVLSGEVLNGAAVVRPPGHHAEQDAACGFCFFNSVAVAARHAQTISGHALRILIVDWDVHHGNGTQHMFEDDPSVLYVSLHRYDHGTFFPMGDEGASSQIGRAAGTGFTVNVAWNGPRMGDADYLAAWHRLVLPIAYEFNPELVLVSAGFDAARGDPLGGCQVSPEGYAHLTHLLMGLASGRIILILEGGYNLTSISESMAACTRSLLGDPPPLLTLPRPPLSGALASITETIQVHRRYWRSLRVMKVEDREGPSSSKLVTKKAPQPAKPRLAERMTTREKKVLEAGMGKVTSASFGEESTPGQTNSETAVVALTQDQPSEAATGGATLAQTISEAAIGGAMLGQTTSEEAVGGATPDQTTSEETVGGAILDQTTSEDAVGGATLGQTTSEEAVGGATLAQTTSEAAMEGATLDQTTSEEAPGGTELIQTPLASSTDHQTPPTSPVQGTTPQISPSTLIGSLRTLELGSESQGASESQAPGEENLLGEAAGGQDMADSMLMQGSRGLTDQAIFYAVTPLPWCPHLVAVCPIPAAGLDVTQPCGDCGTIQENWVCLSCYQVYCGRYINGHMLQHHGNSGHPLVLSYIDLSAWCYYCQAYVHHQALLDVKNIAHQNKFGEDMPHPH

| Structure (SMILES) | IC50 (MCF-7 cells) | Antiproliferative activity against MCF-7, in words (MCF-7 cells) | Antiproliferative activity against A549, in words (A549 cells) | IC50 (A549 cells) | other results |
| --- | --- | --- | --- | --- | --- |
| CC[C@@H]1OC(=O)[C@@H](C)[C@H](O[C@H]2C[C@@](C)(OC)[C@@H](O)[C@H](C)O2)[C@@H](C)[C@H](O[C@H]2O[C@@H](C)C[C@@H](N(C)C)[C@@H]2O)[C@](C)(O)C[C@H](C)CN(Cc2ccc(-c3cn(CCCCCCC(=O)NO)nn3)cc2)[C@H](C)[C@H](O)[C@@]1(C)O [Compound 8f, (Azithromycin-(N10-(4-triazolylbenzyl)))-N-hydroxyheptanamide] | – | – | – | – | Suppression of NTHi-induced TNF-α, IL-1α, IL-1β mRNA expression [1]: more significantly suppressed |
| CC[C@H]1OC(=O)[C@H](C)C(=O)[C@H](C)[C@@H](O[C@@H]2O[C@H](C)C[C@H](N(C)Cc3ccc(-c4cn(CCCCCCC(=O)NO)nn4)cc3)[C@H]2O)[C@@](C)(OC)C[C@@H](C)C2=NCCN3C(=O)O[C@@]1(C)[C@H]3[C@H]2C [Compound 26f] | – | – | – | – | Suppression of NTHi-induced TNF-α, IL-1α, IL-1β mRNA expression [1]: more significantly suppressed |
| CC[C@H]1OC(=O)[C@@H](C)[C@H](O[C@H]2C[C@@](C)(OC)[C@@H](O)[C@H](C)O2)[C@H](C)[C@H](O[C@H]2O[C@@H](C)C[C@@H](N(C)Cc3ccc(-c4cn(CCCC(=O)NO)nn4)cc3)[C@@H]2O)[C@@](C)(O)C[C@H](C)CN(C)[C@@H](C)[C@H](O)[C@@]1(C)O [Compound 17c] | > 20 µM | devoid of antiproliferative activities | devoid of antiproliferative activities | > 20 µM | – |
| CC[C@@H]1OC(=O)[C@@H](C)[C@H](O[C@H]2C[C@@](C)(OC)[C@@H](O)[C@H](C)O2)[C@@H](C)[C@H](O[C@H]2O[C@@H](C)C[C@@H](N(C)C)[C@@H]2O)[C@](C)(O)C[C@H](C)CN(Cc2ccc(-c3cn(CCCCC(=O)NO)nn3)cc2)[C@H](C)[C@H](O)[C@@]1(C)O [Compound 8d, (Azithromycin-(N10-(4-triazolylbenzyl)))-N-hydroxypentanamide] | > 20 µM | devoid of antiproliferative activities | devoid of antiproliferative activities | > 20 µM | – |
| CC[C@H]1OC(=O)[C@H](C)C(=O)[C@H](C)[C@@H](O[C@@H]2O[C@H](C)C[C@H](N(C)Cc3ccccc3-c3cn(CCCCCCC(=O)NO)nn3)[C@H]2O)[C@@](C)(OC)C[C@@H](C)C2=NCCN3C(=O)O[C@@]1(C)[C@H]3[C@H]2C [Compound 24b, (Tricyclic Ketolide-3′-(N-(2-triazolylbenzyl)))-N-hydroxyheptanamide] | > 20 µM | devoid of antiproliferative activities | devoid of antiproliferative activities | > 20 µM | – |
| CC[C@H]1OC(=O)[C@H](C)C(=O)[C@H](C)[C@@H](O[C@@H]2O[C@H](C)C[C@H](N(C)Cc3cccc(-c4cn(CCCCCC(=O)NO)nn4)c3)[C@H]2O)[C@@](C)(OC)C[C@@H](C)C2=NCCN3C(=O)O[C@@]1(C)[C@H]3[C@H]2C [Compound 25a, (Tricyclic Ketolide-3′-(N-(3-triazolylbenzyl)))-N-hydroxyhexanamide] | > 20 µM | non-cytotoxic | non-cytotoxic | > 20 µM | Effect on NF-κB activation, in words (NF-κB; NTHi infected BEAS-2B cells, 1 µM pre-screen): suppressing NF-κB activation; NF-κB inhibition IC50 (NF-κB; NTHi-stimulated BEAS-2B cells, luciferase): no dose-dependent effect |
| CC[C@@H]1OC(=O)[C@@H](C)[C@H](O[C@@H]2C[C@](C)(OC)[C@@](O)(CN(C)C)[C@@H](C)O2)[C@H](C)[C@H](O[C@@H]2O[C@H](C)C[C@H](N(C)Cc3ccc(-c4cn(CCCCCCC(=O)NO)nn4)cc3)[C@H]2O)[C@@](C)(OC)C[C@H](C)C(=O)[C@@H](C)[C@@H](O)[C@@]1(C)O [Compound 49b, (Clarithromycin-(4′-N-(4-benzyltriazolyl))-4′′-(N,N-dimethylaminomethyl))-N-hydroxyheptanamide] | – | potently inhibited | potently inhibited | – | – |
| CC[C@H]1OC(=O)[C@@H](C)[C@H](O[C@H]2C[C@@](C)(OC)[C@@H](O)[C@H](C)O2)[C@H](C)[C@H](O[C@H]2O[C@@H](C)C[C@@H](N(C)Cc3ccc(-c4cn(CCCCCCC(=O)NO)nn4)cc3)[C@@H]2O)[C@@](C)(O)C[C@H](C)CN(C)[C@@H](C)[C@H](O)[C@@]1(C)O [Compound 17f] | – | – | – | – | IC50 (HDAC1/2): 0.0139 µM |
| CC[C@@H]1OC(=O)[C@H](C)[C@@H](O[C@@H]2C[C@](C)(OC)[C@H](O)[C@@H](C)O2)[C@@H](C)[C@@H](O[C@@H]2O[C@H](C)C[C@H](N(C)Cc3cccc(-c4cn(CCCCCCC(=O)NO)nn4)c3)[C@H]2O)[C@](C)(O)C[C@@H](C)CN(C)[C@H](C)[C@@H](O)[C@]1(C)O [Compound 16b, (Azithromycin-3′-(N-(3-triazolylbenzyl)))-N-hydroxyheptanamide] | – | potently inhibited | potently inhibited | – | – |
| CC[C@@H]1OC(=O)[C@H](C)[C@@H](O[C@@H]2C[C@](C)(OC)[C@H](O)[C@@H](C)O2)[C@@H](C)[C@@H](O[C@@H]2O[C@H](C)C[C@H](N(C)Cc3ccccc3-c3cn(CCCCCCC(=O)NO)nn3)[C@H]2O)[C@](C)(O)C[C@@H](C)CN(C)[C@H](C)[C@@H](O)[C@]1(C)O [Compound 15b, (Azithromycin-3′-(N-(2-triazolylbenzyl)))-N-hydroxyheptanamide] | > 20 µM | devoid of antiproliferative activities | devoid of antiproliferative activities | > 20 µM | – |
| CC[C@@H]1OC(=O)[C@@H](C)[C@H](O[C@H]2C[C@@](C)(OC)[C@](O)(CN(C)Cc3ccc(-c4cn(CCCCCCC(=O)NO)nn4)cc3)[C@H](C)O2)[C@H](C)[C@H](O[C@@H]2O[C@H](C)C[C@H](N(C)C)[C@H]2O)[C@@](C)(OC)C[C@H](C)C(=O)[C@@H](C)[C@@H](O)[C@@]1(C)O [Compound 38f] | – | potently inhibited | potently inhibited | – | Suppression of NTHi-induced TNF-α, IL-1α, IL-1β mRNA expression [1]: more significantly suppressed |
| CC[C@H]1OC(=O)[C@@H](C)[C@H](O[C@H]2C[C@@](C)(OC)[C@](O)(CN(C)Cc3ccc(-c4cn(CCCCCCC(=O)NO)nn4)cc3)[C@H](C)O2)[C@H](C)[C@H](O[C@H]2O[C@@H](C)C[C@@H](N(C)C)[C@@H]2O)[C@@](C)(O)C[C@H](C)CN(C)[C@@H](C)[C@H](O)[C@@]1(C)O [Compound 39f, (Azithromycin-4′′-(methylamino)-N(methyl)(4-benzyltriazolyl))-N-hydroxyheptanamide] | > 20 µM | non-cytotoxic | non-cytotoxic | > 20 µM | – |
| CC[C@H]1OC(=O)[C@H](C)C(=O)[C@H](C)[C@@H](O[C@@H]2O[C@H](C)C[C@H](N(C)Cc3cccc(-c4cn(CCCCCCC(=O)NO)nn4)c3)[C@H]2O)[C@@](C)(OC)C[C@@H](C)C2=NCCN3C(=O)O[C@@]1(C)[C@H]3[C@H]2C [Compound 25b, (Tricyclic Ketolide-3′-(N-(3-triazolylbenzyl)))-N-hydroxyheptanamide] | – | potently inhibited | – | – | Fold more potent against HDAC8 than 26e (HDAC8): ~5 fold; Fold more potent against HDAC6 than 26e (HDAC6): approximately 2 fold |
